Source: US20080132505A1 (Glaxo Group Limited, priority 2004, published 2008)
pEC50: −log10 of the molar value. Like-named read-outs stand apart in the source and are kept apart here.

Biological target: human cannabinoid CB2 receptor (Homo sapiens, UniProt P34972)
Assay: Cannabinoid CB2 receptor agonist activity (yeast reporter assay, FDGlu fluorescence)
Type: cell-based
Conditions: for Emax: read-out: efficacy value (Emax relative to HU210) at the cloned human cannabinoid CB2 receptor
Summary of the method: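 S. cerevisiae MMY23 expressing human CB2 with a Gpa1/Gαi3 chimeric G-protein, grown 24 h at 30 °C with agonist (1% DMSO) in selective media containing 10 mM 3-aminotriazole and FDGlu, pH 7.0. Fluorescein fluorescence (485/535 nm) fitted by four-parameter curve; Emax and EMR relative to HU210.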

[1] = EC50 value at the cloned human cannabinoid CB2 receptor

human cannabinoid CB2 receptor, sequence (P34972 whole entry): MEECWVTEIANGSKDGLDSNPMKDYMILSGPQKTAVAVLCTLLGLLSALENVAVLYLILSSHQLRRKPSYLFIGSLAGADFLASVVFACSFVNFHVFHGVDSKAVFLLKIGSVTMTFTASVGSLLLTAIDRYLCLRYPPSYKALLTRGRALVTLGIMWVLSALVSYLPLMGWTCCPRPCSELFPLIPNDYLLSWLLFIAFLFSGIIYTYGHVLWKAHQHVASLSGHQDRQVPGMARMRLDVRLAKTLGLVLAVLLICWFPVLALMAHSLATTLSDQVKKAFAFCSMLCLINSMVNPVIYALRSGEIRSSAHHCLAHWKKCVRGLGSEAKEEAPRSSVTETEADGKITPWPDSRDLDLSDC

pEC50 (read-out: EC50 value at the cloned human cannabinoid CB2 receptor) | SMILES | pEC50 [1] | Emax [%]
– | O=C(NCC1CCOCC1)c1cnc(Nc2ccc(Cl)cc2C(F)(F)F)nc1C(F)(F)F [Example 104, 2-(2-Trifluoromethyl-4-chlorophenylamino)-4-trifluoromethyl-pyrimidine-5-carboxylic acid (tetrahydro-pyran-4-ylmethyl)-amide] | 6.00 to 6.52 | > 50
– | O=C(NCC1CCC1)c1cnc(Nc2ccc(F)cc2C(F)(F)F)nc1C(F)(F)F [Example 101, 2-(2-Trifluoromethyl-4-fluorophenylamino)-4-trifluoromethyl-pyrimidine-5-carboxylic acid cyclobutylmethyl-amide] | 6.00 to 6.52 | > 50
– | O=C(c1cnc(Nc2ccc(Cl)cc2Cl)nc1C(F)(F)F)N1CCOCC1 [Example 7, 1-[2-(2,4-Dichlorophenylamino)-4-trifluoromethylpyrimidin-5-yl]-1-morpholin-4-yl-methanone] | 6.52 to 7.70 | > 50
– | CC(C)c1cc(Nc2ccc(Br)c(C(F)(F)F)c2)ncc1C(=O)NCC1CCOCC1 [Example 752, 6-(4-Bromo-3-trifluoromethyl-phenylamino)-4-isopropyl-N-(tetrahydropyran-4-ylmethyl)-nicotinamide] | 6.00 to 6.52 | > 50
– | O=C(c1cnc(Nc2cccc(Br)c2)nc1C(F)(F)F)N1CCOCC1 [Example 11, 1-[2-(3-Bromophenylamino)-4-trifluoromethylpyrimidin-5-yl]-1-morpholin-4-yl-methanone] | 6.52 to 7.70 | > 50
– | O=C(NCc1ccccc1)c1cnc(Nc2cccc(Br)c2)nc1C(F)(F)F [Example 278, 2-(3-Bromophenylamino)-4-trifluoromethylpyrimidine-5-carboxylic acid benzyl-amide] | 6.52 to 7.70 | > 50
– | O=C(NCC1CCCCC1)c1cnc(Nc2cc(Br)cc(C(F)(F)F)c2)nc1C(F)(F)F [Example 91, 2-(3-Bromo-5-trifluoromethyl-phenylamino)-4-trifluoromethyl-pyrimidine-5-carboxylic acid cyclohexylmethyl-amide] | 6.00 to 6.52 | > 50
– | O=C(NCC1CCC1)c1cnc(Nc2ccc(F)cc2F)nc1C(F)(F)F [Example 223, 2-(2,4-Difluoro-phenylamino)-4-trifluoromethyl-pyrimidine-5-carboxylic acid cyclobutylmethyl-amide] | 6.52 to 7.70 | > 50
– | O=C(c1cnc(Nc2cc(Cl)ccc2Cl)nc1C(F)(F)F)N1CCOCC1 [Example 9, 1-[2-(2,5-Dichlorophenylamino)-4-trifluoromethylpyrimidin-5-yl]-1-morpholin-4-yl-methanone] | 6.52 to 7.70 | > 50
– | O=C(NC1CCCC1)c1cnc(Nc2ccc(Cl)cc2Cl)nc1C(F)(F)F [Example 208, 2-(2,4-Dichlorophenylamino)-4-trifluoromethyl-pyrimidine-5-carboxylic acid cyclopentylamide] | 6.52 to 7.70 | > 50
– | O=C(NCc1ccncc1)c1cnc(Nc2cccc(Br)c2)nc1C(F)(F)F [Example 286, 2-(3-Bromophenylamino)-4-trifluoromethylpyrimidine-5-carboxylic acid (pyridin-4-ylmethyl)amide] | 6.52 to 7.70 | –
– | CC(C)c1cc(Nc2cccc(C(F)(F)F)c2)ncc1C(=O)NCc1ccc(F)cc1 [Example 393, N-(4-Fluoro-benzyl)-4-isopropyl-6-(3-trifluoromethyl-phenylamino)-nicotinamide] | – | > 50
– | Cc1cc(Cl)cc(C)c1Nc1ncc(C(=O)NCC2CCCCC2)c(C(F)(F)F)n1 [Example 95, 2-(4-Chloro-2,6-dimethyl-phenylamino)-4-trifluoromethyl-pyrimidine-5-carboxylic acid cyclohexylmethyl-amide] | 6.00 to 6.52 | > 50
– | O=C(NCc1ccccc1)c1cnc(Nc2cccc(Cl)c2Cl)nc1C(F)(F)F [Example 300, 2-(2,3-Dichloro-phenylamino)-4-trifluoromethyl-pyrimidine-5-carboxylic acid benzylamide] | 6.00 to 6.52 | > 50
– | Cc1ccc(Cl)cc1Nc1ncc(C(=O)NCC2CCCCC2)c(C(F)(F)F)n1 [Example 246, 2-(5-Chloro-2-methylphenylamino)-4-trifluoromethyl-pyrimidine-5-carboxylic acid cyclohexylmethyl-amide] | 6.52 to 7.70 | > 50
6.52 to 7.70 | N#Cc1ccc(Nc2ncc(C(=O)NCC3CCCCC3)c(C(F)(F)F)n2)cc1 [Example 174, 2-(4-Cyanophenylamino)-4-trifluoromethyl-pyrimidine-5-carboxylic acid cyclohexylmethyl-amide] | – | –
– | O=C(NCC1CCOCC1)c1cnc(Nc2cccc(Cl)c2)nc1C(F)(F)F [Example 22, 2-(3-Chlorophenylamino)-4-trifluoromethylpyrimidine-5-carboxylic acid (tetrahydro-pyran-4-ylmethyl)-amide] | 6.52 to 7.70 | > 50

pEC50 (read-out: EC50 value at the cloned human cannabinoid CB2 receptor) | SMILES | pEC50 [1] | Emax [%]
– | N#Cc1ccc(Nc2ncc(C(=O)NCC3CCOCC3)c(C(F)(F)F)n2)c(Cl)c1 [Example 235, 2-(2-Chloro-4-cyano-phenylamino)-4-trifluoromethyl-pyrimidine-5-carboxylic acid (tetrahydro-pyran-4-ylmethyl)-amide] | 6.52 to 7.70 | > 50
– | O=C(NCC1CCC1)c1cnc(Nc2cc(Cl)cc(Cl)c2)nc1C(F)(F)F [Example 206, 2-(3,5-Dichlorophenylamino)-4-trifluoromethyl-pyrimidine-5-carboxylic acid cyclobutylmethyl-amide] | 6.52 to 7.70 | > 50
– | O=C(NCC1CCSCC1)c1cnc(Nc2cccc(Cl)c2)nc1C(F)(F)F [Example 255, 2-(3-Chlorophenylamino)-4-trifluoromethyl-pyrimidine-5-carboxylic acid (tetrahydrothiopyran-4-ylmethyl) amide] | 6.52 to 7.70 | > 50
– | CN(Cc1ccccc1)C(=O)c1cnc(Nc2c(Cl)cccc2Cl)nc1C(F)(F)F [Example 275, 2-(2,6-Dichlorophenylamino)-4-trifluoromethylpyrimidine-5-carboxylic acid N-benzyl-N-methylamide] | 6.52 to 7.70 | –
– | O=C(NCC1CCOCC1)c1cnc(Nc2ccc(Br)cc2F)nc1C(F)(F)F [Example 232, 2-(2-Fluoro-4-bromo-phenylamino)-4-trifluoromethyl-pyrimidine-5-carboxylic acid (tetrahydro-pyran-4-ylmethyl)-amide] | 6.52 to 7.70 | > 50
– | Cc1ccc(Nc2ncc(C(=O)NCC3CCCCC3)c(C(F)(F)F)n2)c(Cl)c1 [Example 244, 2-(2-Chloro-4-methylphenylamino)-4-trifluoromethyl-pyrimidine-5-carboxylic acid cyclohexylmethyl-amide] | 6.52 to 7.70 | > 50
– | O=C(NCC1CCCC1)c1cnc(Nc2ccccc2)nc1C(F)(F)F [Example 251, 2-(Phenylamino)-4-trifluoromethyl-pyrimidine-5-carboxylic acid cyclopentylmethyl-amide] | 6.52 to 7.70 | > 50
– | N#Cc1ccc(Nc2ncc(C(=O)NCC3CCCCC3)c(C(F)(F)F)n2)c(Cl)c1 [Example 237, 2-(2-Chloro-4-cyano-phenylamino)-4-trifluoromethyl-pyrimidine-5-carboxylic acid cyclohexylmethyl-amide] | 6.52 to 7.70 | > 50
– | O=C(NCC1CCC1)c1cnc(Nc2cccc(Br)c2)nc1C(F)(F)F [Example 199, 2-(3-Bromophenylamino)-4-trifluoromethyl-pyrimidine-5-carboxylic acid cyclobutylmethyl-amide] | 6.52 to 7.70 | > 50
– | O=C(NCC1CCC1)c1cnc(Nc2c(Cl)cccc2Cl)nc1C(F)(F)F [Example 203, 2-(2,6-Dichlorophenylamino)-4-trifluoromethyl-pyrimidine-5-carboxylic acid cyclobutylmethyl-amide] | 6.52 to 7.70 | > 50
– | O=C(NCC1CCCCC1)c1cnc(Nc2ccc(Cl)cc2C(F)(F)F)nc1C(F)(F)F [Example 170, 2-(4-Chloro-2-trifluoromethylphenylamino)-4-trifluoromethyl-pyrimidine-5-carboxylic acid cyclohexylmethyl-amide] | 6.52 to 7.70 | > 50
– | N#Cc1cccc(Nc2ncc(C(=O)NCc3ccccc3)c(C(F)(F)F)n2)c1 [Example 362, 2-(3-Cyano-phenylamino)-4-trifluoromethyl-pyrimidine-5-carboxylic acid benzylamide] | 6.52 to 7.70 | > 50
– | O=C(NCC1CCOCC1)c1cnc(Nc2ccc(Cl)cc2F)nc1C(F)(F)F [Example 99, 2-(2-Fluoro-4-chlorophenylamino)-4-trifluoromethyl-pyrimidine-5-carboxylic acid (tetrahydro-pyran-4-ylmethyl)-amide] | 6.00 to 6.52 | > 50
– | O=C(NCC1CCCCC1)c1cnc(Nc2ccc(F)cc2C(F)(F)F)nc1C(F)(F)F [Example 100, 2-(2-Trifluoromethyl-4-fluorophenylamino)-4-trifluoromethyl-pyrimidine-5-carboxylic acid cyclohexylmethyl-amide] | 6.00 to 6.52 | > 50
– | O=C(NC[C@H]1CCCO1)c1cnc(Nc2cccc(Br)c2)nc1C(F)(F)F [Example 80, 2-(3-bromophenylamino)-4-trifluoromethyl-pyrimidine-5-carboxylic acid [R-1-(tetrahydrofuran-2-yl)methyl]-amide] | 6.00 to 6.52 | > 50
– | CC(C)Cc1ccc(CNC(=O)c2cnc(Nc3cccc(Cl)c3)nc2C(F)(F)F)cc1 [Example 302, 2-(3-Chloro-phenylamino)-4-trifluoromethyl-pyrimidine-5-carboxylic acid 4-isobutyl-benzylamide] | 6.00 to 6.52 | > 50
